Reference: ChEMBL document CHEMBL4390686, “Design, Synthesis, and Pharmacokinetic Evaluation of Phosphate and Amino Acid Ester Prodrugs for Improving the Oral Bioavailability of the HIV-1 Protease Inhibitor Atazanavir” (J Med Chem, 2019)
≈ marks a conversion by molar mass, not a printed value.

How the values were obtained:
physchem [1] = details: 30% CH3CN/HCl buffer, pH 1
Description: Half life in pH 1 30%CH3CN/HCl buffer at 50 mM by RP-UPLC analysis

physchem [2] = details: 30% CH3CN/acetate buffer, pH 4
Description: Half life in pH 4 30%CH3CN/acetate buffer at 50 mM by RP-UPLC analysis

physchem [3] = details: HCl buffer, pH 1
Description: Aqueous solubility of the compound in pH 1 HCl buffer by RP-UPLC analysis

physchem [4] = details: acetate buffer, pH 4
Description: Aqueous solubility of the compound in pH 4 acetate buffer by RP-UPLC analysis

physchem [5] = details: 30% CH3CN/phosphate buffer, pH 7.4
Description: Half life in pH 7.4 30%CH3CN/phosphate buffer at 50 mM by RP-UPLC analysis

physchem [6] = details: phosphate buffer, pH 7.4
Description: Aqueous solubility of the compound in pH 7.4 phosphate buffer by RP-UPLC analysis

Protease = Protease (Human immunodeficiency virus 1, UniProt Q9YQ12)
Chain of Protease (Q9YQ12 whole entry): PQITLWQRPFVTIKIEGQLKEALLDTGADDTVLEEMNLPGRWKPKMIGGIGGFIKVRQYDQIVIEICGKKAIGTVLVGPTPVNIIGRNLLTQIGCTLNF
Description: Inhibition of HIV1 protease activity

[7] = rat, in vivo, po, 3 mg/kg
[8] = rat, in vivo, po, 3 mg/kg; remark: listed apart in the source
[9] = rat, in vivo, po, 3 mg/kg; remark: listed apart in the source
Description: AUClast in cannulated Sprague-Dawley rat assessed as atazanavir level at 3 mg/kg equiv of atazanavir administered orally by UPLC/MS/MS analysis

[10] = tested on: Human immunodeficiency virus 1
Description: Antiviral activity against HIV1 NL4-3 infected in human MT2 cells assessed as reduction in viral yield measured after 4 days by EnduRen live cell substrate based luciferase reporter gene assay

physchem [11] = details: 30% CH3CN/phosphate buffer, pH 6.5
Description: Half life in pH 6.5 30%CH3CN/phosphate buffer at 50 mM by RP-UPLC analysis

physchem [12] = details: phosphate buffer, pH 6.5
Description: Aqueous solubility of the compound in pH 6.5 phosphate buffer by RP-UPLC analysis

in vitro [13] = details: human, Caco-2
Description: Apparent permeability across apical to basolateral side in human Caco2 cells at 2 uM

in vitro [14] = details: human, Caco-2; remark: listed apart in the source
Description: Apparent permeability across basolateral to apical side in human Caco2 cells at 2 uM

in vitro [15] = details: human, Caco-2; remark: listed apart in the source
Description: Efflux ratio of apparent permeability across basolateral to apical side over apical to basolateral side in human Caco2 cells

| SMILES | half-life at 50000 µM (physchem [1]) [days] | half-life at 50000 µM (physchem [2]) [days] | solubility (physchem [3]) [µg/mL] | solubility (physchem [4]) [µg/mL] | half-life at 50000 µM (physchem [5]) [days] | solubility (physchem [6]) [µg/mL] | IC50 (Protease) [nM] | Cmax [7] [nM] | Tmax [8] [days] | AUClast [9] [µM·h] | EC50 [10] [nM] | half-life at 50000 µM (physchem [11]) [days] | solubility (physchem [12]) [µg/mL] | Papp A→B at 2 µM (in vitro [13]) [×10⁻⁶ cm/s] | Papp B→A at 2 µM (in vitro [14]) [×10⁻⁶ cm/s] | efflux ratio (in vitro [15]) |
| --- | --- | --- | --- | --- | --- | --- | --- | --- | --- | --- | --- | --- | --- | --- | --- | --- |
| COC(=O)N[C@H](C(=O)N[C@@H](Cc1ccccc1)[C@H](CN(Cc1ccc(-c2ccccn2)cc1)NC(=O)[C@@H](NC(=O)OC)C(C)(C)C)OC(=O)[C@H](N)CCSC)C(C)(C)C | > 20.8 | > 20.8 | > 990 | > 890 | 4.05 | 45 (≈ 53.8 µM) |  |  |  |  |  |  |  |  |  |  |
| COC(=O)N[C@H](C(=O)N[C@@H](Cc1ccccc1)[C@H](CN(Cc1ccc(-c2ccccn2)cc1)NC(=O)[C@@H](NC(=O)OC)C(C)(C)C)OC(=O)CN)C(C)(C)C | > 20.8 | > 20.8 | > 1200 | > 1600 | 1.63 | 960 (≈ 1260 µM) | 4 to 1140 | 162 | 0.38 | 0.224 | 0.9 to 1250 |  |  |  |  |  |
| COC(=O)N[C@H](C(=O)N[C@@H](Cc1ccccc1)[C@H](CN(Cc1ccc(-c2ccccn2)cc1)NC(=O)[C@@H](NC(=O)OC)C(C)(C)C)OC(=O)[C@@H](NC(=O)[C@H](N)C(C)C)C(C)C)C(C)(C)C | > 20.8 | > 20.8 | > 2000 | > 2000 |  |  | 4 to 1140 |  |  |  | 0.9 to 1250 | > 20.8 | 620 (≈ 686 µM) |  |  |  |
| COC(=O)N[C@H](C(=O)N[C@@H](Cc1ccccc1)[C@H](CN(Cc1ccc(-c2ccccn2)cc1)NC(=O)[C@@H](NC(=O)OC)C(C)(C)C)OC(=O)[C@@H](N)CCSC)C(C)(C)C | > 20.8 | > 20.8 | > 1630 | > 1530 | 4.33 | 44 (≈ 52.6 µM) |  | 37 | 0.0346 | 0.053 |  |  |  |  |  |  |
| COC(=O)N[C@H](C(=O)N[C@@H](Cc1ccccc1)[C@H](CN(Cc1ccc(-c2ccccn2)cc1)NC(=O)[C@@H](NC(=O)OC)C(C)(C)C)OC(=O)CNCc1ccccc1)C(C)(C)C | > 20.8 | > 20.8 | > 990 | > 710 |  |  |  | 55 | 0.025 | 0.1 |  | 13.9 | < 1 | < 1.5 | 9.6 | > 6.4 |
| COC(=O)N[C@H](C(=O)N[C@@H](Cc1ccccc1)[C@H](CN(Cc1ccc(-c2ccccn2)cc1)NC(=O)[C@@H](NC(=O)OC)C(C)(C)C)OC(=O)[C@@H](N)Cc1ccc(O)cc1)C(C)(C)C | > 20.8 | 15.7 | > 980 | > 1420 | 8.95 | 9 (≈ 10.4 µM) |  | 99 | 0.017 | 0.103 |  |  |  | < 1.5 | 7.1 | > 4.7 |
| COC(=O)N[C@H](C(=O)N[C@@H](Cc1ccccc1)[C@H](CN(Cc1ccc(-c2ccccn2)cc1)NC(=O)[C@@H](NC(=O)OC)C(C)(C)C)OC(=O)[C@H](C)N)C(C)(C)C | > 20.8 | > 20.8 | > 1300 | > 1100 |  |  | 4 to 1140 | 39 | 0.12 | 0.094 | 0.9 to 1250 | 1.57 | 750 (≈ 967 µM) |  |  |  |
| COC(=O)N[C@H](C(=O)N[C@@H](Cc1ccccc1)[C@H](CN(Cc1ccc(-c2ccccn2)cc1)NC(=O)[C@@H](NC(=O)OC)C(C)(C)C)OC(=O)[C@@H](N)Cc1ccc(F)cc1)C(C)(C)C | > 20.8 | > 20.8 | > 1380 | > 980 | 13.9 | < 1 |  | 305 | 0.021 | 0.463 |  |  |  | < 1.5 | 8.2 | > 5.5 |
| CNCC(=O)O[C@@H](CN(Cc1ccc(-c2ccccn2)cc1)NC(=O)[C@@H](NC(=O)OC)C(C)(C)C)[C@H](Cc1ccccc1)NC(=O)[C@@H](NC(=O)OC)C(C)(C)C | > 20.8 | > 13.9 | > 2200 | > 2400 |  |  |  | 9 | 0.021 | 0.0296 |  | 1.04 | 930 (≈ 1200 µM) |  |  |  |
| COC(=O)N[C@H](C(=O)N[C@@H](Cc1ccccc1)[C@H](CN(Cc1ccc(-c2ccccn2)cc1)NC(=O)[C@@H](NC(=O)OC)C(C)(C)C)OC(=O)CN(C)C(=O)[C@H](Cc1ccccc1)N(C)C)C(C)(C)C | 15.7 | > 20.8 | > 1200 | > 2200 |  |  |  | 285 | 0.021 | 0.359 |  | > 13.9 | 20 (≈ 21 µM) |  |  |  |
| COC(=O)N[C@H](C(=O)N[C@@H](Cc1ccccc1)[C@H](CN(Cc1ccc(-c2ccccn2)cc1)NC(=O)[C@@H](NC(=O)OC)C(C)(C)C)OC(=O)[C@@H](C)N)C(C)(C)C | > 20.8 | > 20.8 | > 1300 | > 1700 |  |  | 4 to 1140 | 3 | 0.179 | 0.008 | 0.9 to 1250 | 1.57 | 520 (≈ 670 µM) |  |  |  |
| COC(=O)N[C@H](C(=O)N[C@@H](Cc1ccccc1)[C@H](CN(Cc1ccc(-c2ccccn2)cc1)NC(=O)[C@@H](NC(=O)OC)C(C)(C)C)OC(=O)[C@@H](N)Cc1c[nH]c2ccccc12)C(C)(C)C | 15.7 | 15.7 | > 1040 | > 910 | 6.97 | 1 (≈ 1.12 µM) |  | 90 | 0.033 | 0.19 |  |  |  |  |  |  |
| COC(=O)N[C@H](C(=O)N[C@@H](Cc1ccccc1)[C@H](CN(Cc1ccc(-c2ccccn2)cc1)NC(=O)[C@@H](NC(=O)OC)C(C)(C)C)OC(=O)[C@H](NC(=O)[C@@H](N)C(C)C)C(C)C)C(C)(C)C | > 20.8 | > 20.8 | > 1710 | > 1420 |  |  | 4 to 1140 |  |  |  | 0.9 to 1250 | > 20.8 | 930 (≈ 1030 µM) |  |  |  |
| COC(=O)N[C@H](C(=O)N[C@@H](Cc1ccccc1)[C@H](CN(Cc1ccc(-c2ccccn2)cc1)NC(=O)[C@@H](NC(=O)OC)C(C)(C)C)OC(=O)[C@H](N)Cc1ccccc1)C(C)(C)C | > 20.8 | > 20.8 | > 1200 | > 1200 |  |  | 4 to 1140 | 64 | 0.021 | 0.154 | 0.9 to 1250 | > 20.8 | < 1 |  |  |  |
| CN[C@@H](Cc1ccccc1)C(=O)N(C)CC(=O)O[C@@H](CN(Cc1ccc(-c2ccccn2)cc1)NC(=O)[C@@H](NC(=O)OC)C(C)(C)C)[C@H](Cc1ccccc1)NC(=O)[C@@H](NC(=O)OC)C(C)(C)C | 15.7 | 0.65 | > 2700 |  |  |  |  | 160 | 0.012 | 0.092 |  | 0.00333 |  |  |  |  |
